IC50 data for three compounds are collected here from ChEMBL document CHEMBL2040805, “Cyclotides from an extreme habitat: characterization of cyclic peptides from Viola abyssinica of the Ethiopian highlands” (J Nat Prod, 2011).

For orientation: IC50 means the midpoint of a concentration-inhibition curve.

The assay relates to U-937/GTB. Briefly: Cytotoxicity against human U937/GTB cells after 72 hrs by fluorometric microculture cytotoxicity assay. The assay is classed as functional, cell-based.

`CC[C@H](C)[C@@H]1NC(=O)[C@@H]2CCCN2C(=O)[C@H](Cc2c[nH]c3ccccc23)NC(=O)[C@H](CO)NC(=O)[C@@H]2CSSC[C@@H]3NC(=O)[C@H]([C@@H](C)O)NC(=O)[C@H](CCC(=O)O)NC(=O)CNC(=O)[C@@H]4CSSC[C@H](NC(=O)CNC(=O)[C@@H]5CCCN5C(=O)[C@H]([C@@H](C)O)NC(=O)[C@H](CC(N)=O)NC(=O)[C@H](CSSC[C@H](NC1=O)C(=O)N[C@@H]([C@@H](C)O)C(=O)N[C@@H](CCCNC(=N)N)C(=O)N[C@@H](CC(N)=O)C(=O)NCC(=O)N[C@@H](CC(C)C)C(=O)N1CCC[C@H]1C(=O)N[C@@H](C(C)C)C(=O)N4)NC(=O)[C@H]([C@@H](C)O)NC(=O)CNC(=O)CNC(=O)[C@H](C)NC3=O)C(=O)N[C@@H](CO)C(=O)N2` yielded an IC50 of 7.6 µM. This counts as single-digit micromolar. On to `CC(C)C[C@@H]1NC(=O)CNC(=O)[C@H](CC(N)=O)NC(=O)[C@H](CCCNC(=N)N)NC(=O)[C@H]([C@@H](C)O)NC(=O)[C@@H]2CSSC[C@@H]3NC(=O)[C@H]([C@@H](C)O)NC(=O)CNC(=O)CNC(=O)[C@H](Cc4ccccc4)NC(=O)[C@@H]4CSSC[C@H](NC(=O)[C@H]([C@@H](C)O)NC(=O)[C@H](CSSC[C@H](NC(=O)[C@H](C(C)C)NC(=O)[C@@H]5CCCN5C1=O)C(=O)NCC(=O)N[C@@H](CCC(=O)O)C(=O)N[C@H]([C@@H](C)O)CN4)NC(=O)CNC(=O)[C@@H]1CCCN1C(=O)[C@H]([C@@H](C)O)NC(=O)[C@H](CC(N)=O)NC3=O)C(=O)N[C@@H](CC(=O)O)C(=O)N1CCC[C@H]1C(=O)N[C@@H](Cc1c[nH]c3ccccc13)C(=O)N1CCC[C@H]1C(=O)N[C@@H](C(C)C)C(=O)N2`, for which the IC50 came out at 2.6 µM. For `COc1cccc2c1C(=O)c1c(O)c3c(c(O)c1C2=O)C[C@@](O)(C(=O)CO)C[C@@H]3O[C@H]1C[C@H](N)[C@H](O)[C@H](C)O1` [DOXORUBICIN], the IC50 was determined as 0.16 µM.
